According to publication PMC4884984, “Identification of approved and investigational drugs that inhibit hypoxia-inducible factor-1 signaling” (Oncotarget, 2016):
Like-named read-outs stand apart in the source and are kept apart here.

Key:
[1] = test system: hypoxia response element-beta-lactamase (HRE–bla); assay: HRE-bla reporter gene assay in ME-180 cells; type: cell-based, human; conditions: Homo sapiens
Procedure: (§1) Cell culture of HRE–bla ME-180 cells (Cat. No. K1644, Life Technologies) and HRE–bla assay were conducted according to a reported protocol [6]. […] The fluorescence signals (460/25 nm and 530/20 nm) of CCF4 and luminescence signals of CellTiter-Glo were acquired on an Envision and a ViewLux plate readers (Perkin Elmer), respectively.

HRE–bla ME-180 cells = assay: Viability (BLA): CellTiter-Glo counter screen in HRE–bla cells; type: cell-based, human; conditions: for Viability (BLA) confirmatory IC50: Table S7, 1% O2, 18 h; for IC50: Homo sapiens, ME-180, Table S7, confirmatory screen, 1% O2, 18 h
Procedure: as §1

HCT116 cells = assay: Cancer cell proliferation assay, HCT116; type: cell-based, human; conditions: for IC50 / Emax: Homo sapiens; for Emax: read-out: HCT116 3-Day Viability Efficacy
Procedure: (§2) HCT116 and ME-180 cells (ATCC) were cultured according to manufacturer's instructions. […] Cell proliferation was quantified as relative luminescence unit (RLU) values using CellTiter-Glo viability assay reagent on a ViewLux plate reader (Perkin Elmer).

ME-180 cells = assay: Cancer cell proliferation assay, ME-180; type: cell-based; conditions: Homo sapiens; for Emax: read-out: ME-180 3-Day Viability Efficacy
Procedure: as §2

[2] = test system: co-cultures of human aortic endothelial cells and human mesenchymal stem cells; assay: In vitro angiogenesis co-culture assay (tube formation); type: cell-based; conditions: Homo sapiens, 72 h, Table 1, three-day exposure; for IC50: tube formation; for Emax: percentage of inhibition compared to DMSO controls, read-out: Angiogenesis Efficacy (converted)
Procedure: Cells were seeded in a 96-well clear bottom plate (Corning) for five hours and exposed to test compounds for three days at 37°C, 5% CO2.

HIF-1α–NanoLuc = HIF-1α–NanoLuc reporter gene assay (qHTS primary and confirmatory screens); type: cell-based, human; conditions: Homo sapiens
[3] = test system: HIF-1α–NanoLuc HCT116 cells; assay: Viability (Luc): CellTiter-Glo counter screen in HIF-1α–NanoLuc cells; type: cell-based, human; conditions: Table S7, 1% O2, 18 h
[4] = ME-180, Table 1, percentage of inhibition compared to DMSO controls, read-out: HRE-bla Efficacy (converted)
[5] = ME-180, Table S7, confirmatory screen, read-out: HRE–bla confirmatory Efficacy
[6] = Table 1, ME-180 cells, 1% O2, 18 h, read-out: HRE-bla IC50
[7] = HCT-116, Table 1, 72 h, read-out: 72-hr Viability HCT116 IC50
[8] = ME-180, Table 1, 72 h, read-out: 72-hr Viability ME-180 IC50
[9] = 18 h, read-out: IC50 (primary screen, HIF-1α–NanoLuc assay)
[10] = read-out: Efficacy (primary screen, HIF-1α–NanoLuc assay)
[11] = read-out: HIF-1α–NanoLuc confirmatory Efficacy
[12] = read-out: HIF-1α–NanoLuc primary Efficacy
[13] = ME-180, Table S7, confirmatory screen, read-out: HRE–bla confirmatory IC50
[14] = HCT-116, 72 h, Table S8, 3 days
[15] = HCT-116, 72 h, Table S8, 3 days, read-out: HCT116 3-Day Viability IC50
[16] = ME-180, 72 h, Table S8, 3 days, read-out: ME-180 3-Day Viability IC50
[17] = read-out: HIF-1α–NanoLuc confirmatory IC50

`Nc1ncn([C@@H]2O[C@H](CO)[C@@H](O)[C@H]2O)c(=O)n1` [5-Azacitidine] showed an Emax [1, 4] of 94%, an Emax [1, 5] of 94 ± 2% and an IC50 [1, 6] of 11000 ± 750 nM. The “Viability (BLA) confirmatory IC50” value (HRE–bla ME-180 cells) was “Inactive”, the IC50 (HCT116 cells; [7]) was 13300 ± 1520 nM and the IC50 (ME-180 cells; [8]) was 18600 nM. The IC50 [2] was 4060 ± 1490 nM and the Emax [2] was 80%.

Work on `CC[C@@]1(O)C(=O)OCc2c1cc1n(c2=O)Cc2cc3ccccc3nc2-1` [Camptothecin] yielded an Emax [1, 4] of 84%, an Emax [1, 5] of 84 ± 1% and an IC50 [1, 6] of 200 ± 60 nM. For the same compound, the “Viability (BLA) confirmatory IC50” value (HRE–bla ME-180 cells) was “Inactive”, the IC50 (HCT116 cells; [7]) was 1000 ± 290 nM and the IC50 (ME-180 cells; [8]) was 40 nM. It also gave an IC50 [2] of 0.27 ± 0.31 nM and an Emax [2] of 134%.

`COc1cccc2c1C(=O)c1c(O)c3c(c(O)c1C2=O)C[C@@](O)(C(C)=O)C[C@@H]3O[C@H]1C[C@H](N)[C@H](O)[C@H](C)O1` [Daunorubicin] gave an IC50 (HIF-1α–NanoLuc; [9]) of 750 nM, an Emax (HIF-1α–NanoLuc; [10]) of 51% and an Emax (HIF-1α–NanoLuc; [11]) of 98 ± 8%. It also gave an Emax (HIF-1α–NanoLuc; [12]) of 51%, an Emax (HIF-1α–NanoLuc; read-out: Pathway inhibitors (primary screen) HIF-1α–NanoLuc Activity Efficacy) of 50% and an Emax (HIF-1α–NanoLuc; read-out: Pathway inhibitors (validation) HIF-1α–NanoLuc Activity Efficacy) of 98 ± 8%. For the same compound, the IC50 (HIF-1α–NanoLuc; read-out: Pathway inhibitors (validation) HIF-1α–NanoLuc Activity IC50) was 1960 ± 350 nM, the Emax [1, 5] was 80 ± 5% and the IC50 [1, 13] was 1000 ± 440 nM. For the same compound, the “Viability (Luc) confirmatory IC50” value [3] was “Inactive”, the IC50 (HRE–bla ME-180 cells) was 3280 ± 1230 nM and the Emax (HCT116 cells; [14]) was 79 ± 28%. The IC50 (HCT116 cells; [15]) was 2430 ± 1400 nM, the Emax (ME-180 cells; ME-180, 72 h, Table S8, 3 days) was 101 ± 4% and the IC50 (ME-180 cells; [16]) was 170 ± 80 nM.

`C[C@H]1O[C@@H](O[C@H]2CC[C@@]3(C)[C@H](CC[C@@H]4[C@@H]3C[C@@H](O)[C@]3(C)[C@@H](C5=CC(=O)OC5)CC[C@]43O)C2)C[C@H](O)[C@@H]1O[C@H]1C[C@H](O)[C@H](O[C@H]2C[C@H](O)[C@H](O[C@@H]3O[C@H](CO)[C@@H](O)[C@H](O)[C@H]3O)[C@@H](C)O2)[C@@H](C)O1` [Deslanoside] was tested, and the IC50 (HIF-1α–NanoLuc; [9]) was 300 nM, the Emax (HIF-1α–NanoLuc; [10]) was 115% and the Emax (HIF-1α–NanoLuc; [11]) was 108 ± 9%. The IC50 (HIF-1α–NanoLuc; [17]) was 390 ± 30 nM, the Emax (HIF-1α–NanoLuc; [12]) was 115% and the Emax [1, 5] was 102 ± 3%. For the same compound, the IC50 [1, 13] was 160 ± 30 nM, the “Viability (Luc) confirmatory IC50” value [3] was “Inactive” and the IC50 (HRE–bla ME-180 cells) was 320 ± 90 nM. It also gave an Emax (HCT116 cells; [14]) of 63 ± 8%, an IC50 (HCT116 cells; [15]) of 2590 ± 2870 nM and an Emax (ME-180 cells; ME-180, 72 h, Table S8, 3 days) of 97 ± 3%. For the same compound, the IC50 (ME-180 cells; [16]) was 310 ± 40 nM.

`C[C@H]1O[C@@H](O[C@H]2[C@@H](O)C[C@H](O[C@H]3[C@@H](O)C[C@H](O[C@H]4CC[C@@]5(C)[C@H](CC[C@@H]6[C@@H]5CC[C@]5(C)[C@@H](C7=CC(=O)OC7)CC[C@]65O)C4)O[C@@H]3C)O[C@@H]2C)C[C@H](O)[C@@H]1O` [Digitoxin] gave an IC50 (HIF-1α–NanoLuc; [9]) of 30 nM, an Emax (HIF-1α–NanoLuc; [10]) of 124% and an Emax (HIF-1α–NanoLuc; [11]) of 101 ± 1%. For the same compound, the IC50 (HIF-1α–NanoLuc; [17]) was 110 ± 10 nM, the Emax (HIF-1α–NanoLuc; [12]) was 124% and the Emax [1, 5] was 97%. The IC50 [1, 13] was 30 ± 10 nM, the “Viability (Luc) confirmatory IC50” value [3] was “Inactive” and the IC50 (HRE–bla ME-180 cells) was 90 ± 30 nM. The Emax (HCT116 cells; [14]) was 97 ± 8%, the IC50 (HCT116 cells; [15]) was 2290 ± 3130 nM and the Emax (ME-180 cells; ME-180, 72 h, Table S8, 3 days) was 101 ± 4%. For the same compound, the IC50 (ME-180 cells; [16]) was 90 ± 20 nM.

With `O=c1cc(N2CCOCC2)oc2c(-c3ccccc3)cccc12` [LY-294002] the Emax (HIF-1α–NanoLuc; Table S2, validation, read-out: Pathway inhibitors (validation) HIF-1α–NanoLuc Activity Efficacy) was 50 ± 9%, the IC50 (HIF-1α–NanoLuc; Table S2, validation, read-out: Pathway inhibitors (validation) HIF-1α–NanoLuc Activity IC50) was 14600 ± 3540 nM and the Emax (HIF-1α–NanoLuc; Table S7, confirmatory screen, read-out: HIF-1α–NanoLuc confirmatory Efficacy) was 50 ± 9%. The Emax [1, 5] was 35 ± 8%, the IC50 [1, 13] was 12000 ± 2250 nM and the “Viability (Luc) confirmatory IC50” value [3] was “Inactive”. The “Viability (BLA) confirmatory IC50” value (HRE–bla ME-180 cells) was “Inactive”, the “HCT116 3-Day Viability IC50” value (HCT116 cells; Table S8, 3 days) was “Inactive” and the Emax (ME-180 cells; ME-180, 72 h, Table S8, 3 days) was 73 ± 4%. It also gave an IC50 (ME-180 cells; [16]) of 15400 ± 1040 nM.

For `O=C(Nc1ccc([N+](=O)[O-])cc1Cl)c1cc(Cl)ccc1O` [Niclosamide], the Emax [1, 4] was 91%, the Emax [1, 5] was 84 ± 6% and the IC50 [1, 13] was 1670 ± 460 nM. The IC50 [1, 6] was 230 ± 50 nM, the IC50 (HRE–bla ME-180 cells) was 1630 ± 2580 nM and the Emax (HCT116 cells; [14]) was 83 ± 6%. It also gave an IC50 (ME-180 cells; [8]) of 2040 nM, an IC50 [2] of 40 ± 30 nM and an Emax [2] of 87%.

In the case of `C[C@@H]1O[C@@H](O[C@H]2C[C@@H](O)[C@]3(CO)[C@H]4[C@H](O)C[C@]5(C)[C@@H](C6=CC(=O)OC6)CC[C@]5(O)[C@@H]4CC[C@]3(O)C2)[C@H](O)[C@H](O)[C@H]1O` [Ouabain], the Emax [1, 5] is reported as 94 ± 4%, the IC50 [1, 13] is reported as 80 ± 10 nM and the IC50 (HRE–bla ME-180 cells) is reported as 130 nM. It also gave an Emax (HCT116 cells; [14]) of 73 ± 13%, an IC50 (HCT116 cells; [15]) of 630 ± 370 nM and an Emax (ME-180 cells; ME-180, 72 h, Table S8, 3 days) of 98 ± 4%. For the same compound, the IC50 (ME-180 cells; [16]) was 130 ± 10 nM.
